{"source": "patent EP2928896B1", "about": "“SOLID FORM OF DIHYDRO-PYRIDO-OXAZINE DERIVATIVE” (NOVARTIS AG, priority 2012, dated 2014)", "key": {"[1]": {"target": "PI3K alpha (Homo sapiens, UniProt P42336)", "sequence (P42336 with tags, fused parts or gaps limits assumed)": "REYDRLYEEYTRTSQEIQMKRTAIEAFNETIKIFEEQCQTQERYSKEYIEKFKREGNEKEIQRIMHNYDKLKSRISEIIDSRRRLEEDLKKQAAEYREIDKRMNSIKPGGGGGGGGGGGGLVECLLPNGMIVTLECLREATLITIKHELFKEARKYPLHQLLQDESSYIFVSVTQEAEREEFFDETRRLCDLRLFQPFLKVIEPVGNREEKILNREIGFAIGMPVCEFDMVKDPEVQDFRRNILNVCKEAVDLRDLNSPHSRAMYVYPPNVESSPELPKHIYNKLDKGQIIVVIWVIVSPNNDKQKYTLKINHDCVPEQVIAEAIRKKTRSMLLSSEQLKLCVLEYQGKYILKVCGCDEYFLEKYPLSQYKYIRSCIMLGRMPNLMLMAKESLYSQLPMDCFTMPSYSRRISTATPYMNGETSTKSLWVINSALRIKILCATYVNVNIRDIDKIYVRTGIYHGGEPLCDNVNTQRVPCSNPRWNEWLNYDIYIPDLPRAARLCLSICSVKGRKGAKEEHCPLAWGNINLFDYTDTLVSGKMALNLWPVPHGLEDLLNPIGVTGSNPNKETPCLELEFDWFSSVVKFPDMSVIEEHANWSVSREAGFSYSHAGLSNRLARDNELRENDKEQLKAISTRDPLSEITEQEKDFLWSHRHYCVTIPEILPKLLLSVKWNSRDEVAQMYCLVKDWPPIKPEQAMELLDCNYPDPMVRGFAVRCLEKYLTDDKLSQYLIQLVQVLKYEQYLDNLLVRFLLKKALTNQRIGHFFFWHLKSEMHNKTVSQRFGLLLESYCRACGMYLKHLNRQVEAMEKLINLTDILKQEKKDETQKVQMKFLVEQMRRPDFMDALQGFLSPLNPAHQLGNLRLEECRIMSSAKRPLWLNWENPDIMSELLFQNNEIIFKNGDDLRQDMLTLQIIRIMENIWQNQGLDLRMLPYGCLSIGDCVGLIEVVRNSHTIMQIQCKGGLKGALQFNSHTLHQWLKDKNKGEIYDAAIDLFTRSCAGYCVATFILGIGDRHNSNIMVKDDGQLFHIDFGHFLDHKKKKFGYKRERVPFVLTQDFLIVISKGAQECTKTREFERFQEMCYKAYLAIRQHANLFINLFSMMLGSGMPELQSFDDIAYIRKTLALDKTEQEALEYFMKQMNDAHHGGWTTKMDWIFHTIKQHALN", "assay": "Enzymatic PI3K alpha isoform inhibition (lipid kinase activity, Kinase-Glo luminescence / ATP depletion)", "assay_type": "biochemical", "source_text": "The reaction is started by the addition of PI3 kinase, e.g. PI3 kinase δ.\nThe reaction is started by the addition of ATP."}, "[2]": {"target": "T1, PI3K delta (Homo sapiens, UniProt O00329)", "T1 construct": "for the full-length p110-d subunit are generated and fused by overlapping PCR; p85 iSH2 (inter SH2 domain) fusion partner (N); His tag (C); made in house; host or cells: baculovirus; Tn5 (Trichoplusia ni) or TiniPro insect cells", "T1 sequence (O00329 with tags, fused parts or gaps limits assumed)": "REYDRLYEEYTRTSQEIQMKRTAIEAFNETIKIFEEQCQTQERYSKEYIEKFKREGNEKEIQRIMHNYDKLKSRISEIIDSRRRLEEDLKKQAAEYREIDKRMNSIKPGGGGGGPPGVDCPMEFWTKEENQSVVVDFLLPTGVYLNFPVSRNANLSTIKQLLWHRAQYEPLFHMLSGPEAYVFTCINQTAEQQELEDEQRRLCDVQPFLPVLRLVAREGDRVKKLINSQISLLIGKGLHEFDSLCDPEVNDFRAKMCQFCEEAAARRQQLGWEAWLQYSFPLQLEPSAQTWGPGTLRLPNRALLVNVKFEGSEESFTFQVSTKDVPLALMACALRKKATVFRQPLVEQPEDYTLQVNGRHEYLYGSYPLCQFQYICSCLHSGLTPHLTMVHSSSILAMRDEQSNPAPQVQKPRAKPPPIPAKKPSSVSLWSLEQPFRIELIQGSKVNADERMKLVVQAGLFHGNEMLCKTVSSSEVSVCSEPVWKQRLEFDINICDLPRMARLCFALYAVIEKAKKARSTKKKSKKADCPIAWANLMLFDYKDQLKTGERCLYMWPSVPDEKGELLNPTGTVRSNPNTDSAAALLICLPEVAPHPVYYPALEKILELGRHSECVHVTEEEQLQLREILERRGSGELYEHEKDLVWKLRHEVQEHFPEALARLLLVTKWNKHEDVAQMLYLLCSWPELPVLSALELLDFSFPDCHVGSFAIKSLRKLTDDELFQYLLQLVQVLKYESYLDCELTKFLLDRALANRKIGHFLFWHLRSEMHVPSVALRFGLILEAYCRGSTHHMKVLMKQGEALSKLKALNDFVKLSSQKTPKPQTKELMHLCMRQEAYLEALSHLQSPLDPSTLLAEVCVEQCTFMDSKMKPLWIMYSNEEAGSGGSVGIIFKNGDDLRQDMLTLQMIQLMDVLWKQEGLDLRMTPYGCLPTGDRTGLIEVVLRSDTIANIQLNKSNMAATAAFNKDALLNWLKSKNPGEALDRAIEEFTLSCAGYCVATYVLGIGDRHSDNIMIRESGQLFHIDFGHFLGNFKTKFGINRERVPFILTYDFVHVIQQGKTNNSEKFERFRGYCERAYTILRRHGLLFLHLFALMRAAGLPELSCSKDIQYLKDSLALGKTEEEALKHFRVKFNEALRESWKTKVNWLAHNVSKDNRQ", "assay": "Enzymatic PI3K delta isoform inhibition (lipid kinase activity, Kinase-Glo luminescence / ATP depletion)", "assay_type": "biochemical"}, "[3]": {"target": "T2, PI3Kδ (Homo sapiens, UniProt O00329)", "T2 construct": "expressed in transfected cells", "T2 sequence (O00329 1-1044)": "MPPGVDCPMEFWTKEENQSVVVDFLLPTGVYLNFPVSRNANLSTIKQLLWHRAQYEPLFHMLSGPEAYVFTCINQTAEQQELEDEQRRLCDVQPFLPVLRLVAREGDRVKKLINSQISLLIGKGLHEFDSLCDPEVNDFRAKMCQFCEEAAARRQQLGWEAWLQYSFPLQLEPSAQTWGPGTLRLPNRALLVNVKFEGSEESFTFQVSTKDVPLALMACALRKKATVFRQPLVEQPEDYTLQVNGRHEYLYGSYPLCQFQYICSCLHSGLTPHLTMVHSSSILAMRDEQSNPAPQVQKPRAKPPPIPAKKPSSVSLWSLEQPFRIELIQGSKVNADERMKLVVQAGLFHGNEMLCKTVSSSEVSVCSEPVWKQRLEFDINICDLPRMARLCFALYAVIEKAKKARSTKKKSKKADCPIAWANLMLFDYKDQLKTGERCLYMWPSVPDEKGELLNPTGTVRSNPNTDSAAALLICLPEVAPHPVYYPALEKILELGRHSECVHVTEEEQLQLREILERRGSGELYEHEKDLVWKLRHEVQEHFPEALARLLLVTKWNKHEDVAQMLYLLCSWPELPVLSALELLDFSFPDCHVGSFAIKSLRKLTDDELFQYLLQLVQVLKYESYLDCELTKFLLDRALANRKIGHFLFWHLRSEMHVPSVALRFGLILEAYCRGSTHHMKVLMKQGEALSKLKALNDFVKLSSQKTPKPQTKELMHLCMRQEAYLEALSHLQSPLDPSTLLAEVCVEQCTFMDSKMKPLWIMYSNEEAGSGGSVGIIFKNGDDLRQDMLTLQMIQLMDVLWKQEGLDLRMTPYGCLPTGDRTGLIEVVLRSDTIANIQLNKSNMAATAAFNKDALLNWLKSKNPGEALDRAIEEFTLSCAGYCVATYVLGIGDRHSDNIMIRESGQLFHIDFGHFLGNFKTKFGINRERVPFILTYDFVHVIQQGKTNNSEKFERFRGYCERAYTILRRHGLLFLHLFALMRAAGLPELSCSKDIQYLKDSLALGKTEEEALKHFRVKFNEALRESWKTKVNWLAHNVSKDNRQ", "assay": "PI3K-mediated Akt 1/2 (S473) phosphorylation in Rat-1 cells overexpressing myristoylated PI3K delta (AlphaScreen SureFire)", "assay_type": "cell-based", "procedure": "Rat-1 cells stably overexpressing a myristoylated form of the catalytic subunit of human phosphoinositide-3 kinase (PI3K) alpha, beta or delta were plated in 384-well plates at a density of 7500 (PI3K alpha), 6200 (PI3K beta), or 4000 (PI3K delta) cells in 30ul complete growth medium (Dulbecco's modified Eagle's medium (DMEM high glucose) supplemented with 10% (v/v) fetal bovine serum, 1% (v/v) MEM non essential amino acids, 10mM HEPES, 2mM L-glutamine, 10 µg/mL puromycin and 1% (v/v) Penicillin/Streptomycin) and were incubated at 37%C / 5%CO2 / 95% humidity for 24h. Compounds were diluted in 384-well compound plates to obtain 8-point serial dilutions for 40 test compounds in 90% DMSO, as well as 4 reference compounds plus 16 high controls and 16 low (inhibited) controls. Predilution plates were prepared by dispensing pipetting 250 nl of compound solutions into 384-well polypropylen plates using a Hummingwell nanoliter dispensor. Compounds were prediluted by the addition of 49.75 ul complete growth medium. 10ul of prediluted compound solution were transferred to the cell plate using a 384-well pipettor, resulting in a final DMSO concentration of 0.11%. […]\nFor detection of p-AKT(Ser473), the SureFire® p-Akt 1/2 (Ser473) Assay Kit (PerkinElmer, U.S.A) was used. […] The plate was read on an AlphaScreen® compatible plate reader, using standard AlphaScreen® settings."}}, "data": [{"compound": "COc1ncc(N2CCOc3cnc(O[C@H]4CCN(C(=O)C5CCS(=O)(=O)CC5)C4)cc32)cc1C", "note": "[Example F1, (1,1-Dioxo-hexahydro-1lambda*6*-thiopyran-4-yl)-{(S)-3-[1-(6-methoxy-5-methyl-pyridin-3-yl)-2,3-dihydro-1H-pyrido[3,4-b][1,4]oxazin-7-yloxy]-pyrrolidin-1-yl}-methanone]", "values": [{"measurement": "IC50", "setting": "[1]", "value": 109, "unit": "nM"}, {"measurement": "IC50", "setting": "[2]", "value": 3, "unit": "nM"}, {"measurement": "IC50", "setting": "[3]", "value": 11, "unit": "nM"}]}]}
